From patent publication EP3057950B1, “PHENYL LINKED QUINOLINYL MODULATORS OF ROR-GAMMA-T” (Janssen Pharmaceutica NV, priority 2013, dated 2015)
Values joined by “and” are separate entries in the source; they are usually repeats but may differ in a detail not shown here. Equal values may be shown once. Where a name gives a salt, the structure may show the parent alone.

Experiments:
[1] = biological target: T1, wild type human RORγt LBD (Homo sapiens, UniProt P51449); assay: RORγt Reporter Assay (GAL4-RORγt LBD luciferase in HEK293T cells); type: cell-based; conditions: HEK293T cells; for IC50: compounds for 24 hours, read-out: RORγt reporter Assay, IC50; for inhibition at 6 µM: HEK-293T, read-out: RORγt reporter Assay, % inhibition @ 6 µM, @ 6 µM
T1 construct: expressed in transfected cells; host or cells: HEK293T
T1 sequence (P51449 269-508 limits assumed): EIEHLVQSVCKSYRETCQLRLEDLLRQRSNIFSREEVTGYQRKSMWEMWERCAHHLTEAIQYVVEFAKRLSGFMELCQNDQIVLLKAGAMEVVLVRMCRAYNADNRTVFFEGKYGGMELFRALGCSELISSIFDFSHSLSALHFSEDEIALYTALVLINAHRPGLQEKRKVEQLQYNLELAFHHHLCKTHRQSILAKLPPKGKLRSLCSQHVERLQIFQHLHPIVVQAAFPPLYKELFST
In short: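 HEK293T cells transiently co-transfected with GAL4-DBD–human RORγt LBD (or AF2 mutant) and GAL4-responsive firefly luciferase reporter; renilla luciferase normalised transfection and viability. Compounds applied 24 h in 5% lipid-reduced FCS; firefly/renilla ratio plotted against concentration.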

[2] = biological target: T2, wild type human RORγt ligand binding domain (RORγt LBD) (Homo sapiens, UniProt P51449); assay: RORγt ThermoFluor® Assay (thermal shift, binding affinity); conditions: pH 7.0, estimated from concentration response curves
T2 construct: His-tag (N); TurboTEV protease cleavage site (ENLYFQG) (N); made in house; host or cells: E. coli (pHIS1, modified pET expression vector)
T2 sequence (P51449 269-508 limits assumed): T1 sequence (P51449 269-508 limits assumed)
In short: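 Thermal shift assay on 0.065 mg/mL RORγt LBD with 60 µM 1,8-ANS in 100 mM Hepes pH 7.0, 10 mM NaCl, 2.5 mM GSH, 0.002% Tween-20. Heated at 1 °C/min, fluorescence read at 500 nm.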

## CSc1nc2ccc(C(O)(c3sc(C)nc3C)c3cncn3C)cc2c(SC)c1-c1ccccc1 (stereo not drawn) [Example 42, (2,4-Bis(methylthio)-3-phenylquinolin-6-yl)(2,4-dimethylthiazol-5-yl)(1-methyl-1H-imidazol-5-yl)methanol•TFA]
[1]
  IC50: 17 nM
  inhibition at 6 µM: 103%
[2]
  Kd: 0.51 nM

## N#Cc1nc2ccc(C(O)(c3ccc(C(F)(F)F)nc3)c3cccc(Cl)c3)cc2cc1-c1ccccc1 (stereo not drawn) [Example 75, 6-((3-Chlorophenyl)(hydroxy)(6-(trifluoromethyl)pyridin-3-yl)methyl)-3-phenylquinoline-2-carbonitrile]
[1]
  IC50: 2900 nM
  inhibition at 6 µM: 99%
[2]
  Kd: 14000 nM

## Cn1cncc1C(O)(c1ccc2nc(Cl)c(-c3ccccc3)c(Cl)c2c1)c1ncccn1 (stereo not drawn) [Example 55, (2,4-Dichloro-3-phenylquinolin-6-yl)(1-methyl-1H-imidazol-5-yl)pyrimidin-2-ylmethanol]
[1]
  IC50: ~3000 nM
  inhibition at 6 µM: 70%
[2]
  Kd: 3300 nM

## CC(=O)N1CCC(C(O)(c2ccc3nc(C(F)(F)F)c(-c4ccccc4)c(Cl)c3c2)c2cncn2C)CC1 (single isomer, unassigned) [Example 34b, 1-(4-((4-Chloro-3-phenyl-2-(trifluoromethyl)quinolin-6-yl)(hydroxy)(1-methyl-1H-imidazol-5-yl)methyl)piperidin-1-yl)ethanone]
[1]
  IC50: 1000 nM
  inhibition at 6 µM: 90%
[2]
  Kd: 450 nM

## Cn1cncc1C(O)(c1ccc(Cl)cc1)c1ccc2nc(Cl)c(-c3cccnc3)c(Cl)c2c1 (stereo not drawn) [Example 6, (4-Chlorophenyl)(2,4-dichloro-3-(pyridin-3-yl)quinolin-6-yl)(0-methyl-1H-imidazol-5-yl)methanol•TFA]
[1]
  IC50: 1900 nM
  inhibition at 6 µM: 92%
[2]
  Kd: 940 nM

## Cc1cc(C(O)(c2ccc(Cl)cc2)c2cncn2C)cc2c(C#N)c(-c3ccccc3)c(C#N)nc12 (single isomer, unassigned) [Example 23b, 6-((4-Chlorophenyl)(hydroxy)(1-methyl-1H-imidazol-5-yl)methyl)-8-methyl-3-phenylquinoline-2,4-dicarbonitrile]
[1]
  RORγt reporter Assay, % inhibition @ 6 µM: 60%
  IC50: ~4000 nM
[2]
  Kd: 15000 nM

## Cc1nc(C)c(C(O)(c2ccc3nc(C#N)c(-c4ccccc4)c(C#N)c3c2)c2cnnn2C)s1 (stereo not drawn) [Example 47a, 6-((2,4-Dimethylthiazol-5-yl)(hydroxy)(1-methyl-1H-1,2,3-triazol-5-yl)methyl)-3-phenylquinoline-2,4-dicarbonitrile]
[1]
  IC50: 40 nM
  inhibition at 6 µM: 98%
[2]
  Kd: 8.3 nM

## COc1nc2ccc(C(O)(c3ncccn3)c3cncn3C)cc2c(Cl)c1-c1ccccc1 (single isomer, unassigned) [Example 60b, (4-Chloro-2-methoxy-3-phenylquinolin-6-yl)(1-methyl-1H-imidazol-5-yl)pyrimidin-2-ylmethanol]
[1]
  IC50: ~2000 nM
  inhibition at 6 µM: 87%
[2]
  Kd: 900 nM

## CN1CCC(C(O)(c2cccnc2)c2ccc3nc(Cl)c(-c4ccccc4)c(Cl)c3c2)CC1 (stereo not drawn) [Example 78, (2,4-Dichloro-3-phenylquinolin-6-yl)(1-methylpiperidin4-yl)(pyridin-3-yl)methanol•TFA]
[1]
  IC50: > 6000 nM
  inhibition at 6 µM: 33%
[2]
  Kd: 14000 nM

## Cn1cncc1C(O)(c1ccc(Cl)cc1)c1ccc2nc(OCCN)c(-c3ccccc3)c(Cl)c2c1 (stereo not drawn) [Example 52, [2-(2-Aminoethoxy)4-chloro-3-phenylquinolin-6-yl](4-chlorophenyl)(1-methyl-1H-imidazol-5-yl)methanol]
[1]
  IC50: ~6000 nM
  inhibition at 6 µM: 52%
[2]
  Kd: 3500 nM

## COc1ncc(-c2c(OC)nc3ccc(C(O)(c4ccc(C(F)(F)F)nc4)c4cncn4C)cc3c2Cl)cn1 (stereo not drawn) [Example 15, [4-Chloro-2-methoxy-3-(2-methoxypyrimidin-5-yl)quinolin-6-yl](1-methyl-1H-imidazol-5-yl)[6-(trifluoromethyl)pyridin-3-yl]methanol•TFA]
[1]
  IC50: > 6000 nM
  inhibition at 6 µM: -29%
[2]
  Kd: 21 nM

## CC(=O)N1CCC(C(O)(c2ccc(C(F)(F)F)nc2)c2cc(C)c3nc(C#N)c(-c4ccccc4)c(C#N)c3c2)CC1 (single isomer, unassigned) [Example 27c, 6-((1-Acetylpiperidin-4-yl)(hydroxy)(6-(trifluoromethyl)pyridin-3-yl)methyl)-8-methyl-3-phenylquinoline-2,4-dicarbonitrile]
[1]
  RORγt reporter Assay, % inhibition @ 6 µM: 96%
  IC50: 2100 nM
[2]
  Kd: 820 nM

## CCCCc1c(-c2ccccc2)c(OC(C)C)nc2ccc(C(O)(c3ccncc3)c3cncn3C)cc12 (stereo not drawn) [Example 80, (4-Butyl-2-isopropoxy-3-phenylquinolin-6-yl)(1-methyl-1H-imidazol-5-yl)(pyridin4-yl)methanol•TFA]
[1]
  IC50: > 6000 nM
  inhibition at 6 µM: 72%
[2]
  Kd: 12000 nM

## CC(=O)N1CCC(C(O)(c2cccnc2)c2ccc3nc(C(F)(F)F)c(-c4ccccc4)c(Cl)c3c2)CC1 (stereo not drawn) [Example 29, 1-(4-((4-Chloro-3-phenyl-2-(trifluoromethyl)quinolin-6-yl)(hydroxy)(pyridin-3-yl)methyl)piperidin-1-yl)ethanone•TFA]
[1]
  IC50: 85 nM
  inhibition at 6 µM: 97%
[2]
  Kd: 26 nM

## COc1nc2ccc(C(O)(c3ccc(C(F)(F)F)nc3)c3cncn3C)cc2c(Cl)c1-c1ccc(Cl)s1 (stereo not drawn) [Example 14a, [4-Chloro-3-(5-chlorothiophen-2-yl)-2-methoxyquinofin-6-yl](1-methyl-1H-imidazol-5-yl)[6-(trifluoromethyl)pyridin-3-yl]methanol•TFA]
[1]
  IC50: 1100 nM
  inhibition at 6 µM: 55%
[2]
  Kd: 6.7 nM

## COc1nc2ccc(C(O)(c3ccc(C(F)(F)F)nc3)c3cncn3C)cc2c(Cl)c1-c1cccc(S(C)(=O)=O)c1 (stereo not drawn) [Example 11, {4-Chloro-2-methoxy-3-[3-(methylsuffonyl)phenyl]quinolin-6-yl)(1-methyl-1H-imidazol-5-yl)[6-(trifluoromethyl)pyridin-3-yl]methanol•TFA]
[1]
  IC50: > 6000 nM
  inhibition at 6 µM: 32%
[2]
  Kd: 640 nM

## COc1c(-c2ccccc2)c(Cl)nc2ccc(C(O)(c3sc(C)nc3C)c3cnnn3C)cc12 (stereo not drawn) [Example 36]
[1]
  IC50: 11 nM and ~40 nM
  inhibition at 6 µM: 97%
[2]
  Kd: 0.89 nM

## COc1nc2ccc(C(O)(c3sc(C)nc3C)c3cnnn3C)cc2c(Cl)c1-c1ccccc1 (stereo not drawn) [Example 35, (4-Chloro-2-methoxy-3-phenylquinolin-6-yl)(2,4-dimethylthiazol-5-yl)(1-methyl-1H-1,2,3-triazol-5-yl)methnol•TFA]
[1]
  IC50: 160 nM
  inhibition at 6 µM: 101%
[2]
  Kd: 18 nM

## Cn1cncc1C(O)(c1ccc(C#N)cc1)c1ccc2nc(C(F)(F)F)c(-c3ccccc3)c(C#N)c2c1 (stereo not drawn) [Example 28, 6-((4-Cyanophenyl)(hydroxy)(1-methyl-1H-imidazol-5-yl)methyl)-3-phenyl-2-(trifluoromethyl)quinoline-4-carbonitrile•TFA]
[1]
  IC50: 24 nM and ~40 nM
  inhibition at 6 µM: 96%
[2]
  Kd: 46 nM

## COCCOc1nc2ccc(C(O)(c3ccc(Cl)cc3)c3cncn3C)cc2c(Cl)c1-c1ccccc1 (stereo not drawn) [Example 48, [4-Chloro-2-(2-methoxyethoxy)-3-phenylquinolin-6-yl](4-chlorophenyl)(1-methyl-1H-imidazol-5-yl)methanol]
[1]
  IC50: 670 nM
  inhibition at 6 µM: 103%
[2]
  Kd: 810 nM
